The source of these data is patent publication US10155007B2, “Synthesis method for improved tenofovir disoproxil fumarate using ion-exchange resin and method for preparing oral dissolving film form using the same” (Firson, priority 2014, dated 2018).

This series can be described thus: Solubility of tenofovir in the aqueous neutralization solution. It is filed as physicochemical. Here is the method: The present invention also relates to a method of adding a defined proportion of calcium hydride to magnesium butoxide that is a catalyst commonly used in the synthesis of DEPMPA from HPA to shorten the reaction time from 18 hours to 6 hours or less and cause the production of toluene calcium sulfonate to reduce highly deliquescent substances, and using an ion-exchange resin (Dowex 50W, sulfonic acid cation exchange resin) after neutralization with a counter-alkali solution in the dealcoholizing hydrolysis of the ester compound into tenofovir, thereby to reach a precise isoelectric point (pH 3.2) and further increase the synthesis yield of tenofovir. Generally, when the pH value is 2.5 to 3.5 in the neutralization, tenofovir (H2O, one-molecule crystal water) is dissolved in the aqueous solution at about 7 percent. When the neutralization is perfectly performed with the ion-exchange resin, the solubility of tenofovir can be reduced to 4 percent or below.

Each structure is given as a SMILES string. A value given as a limit tells only on which side of the number the result lay.

As to `C[C@H](Cn1cnc2c(N)ncnc21)OCP(=O)(O)O` [tenofovir, (R)-9-[2-(phosphonomethoxy)propyl]adenine], the solubility of tenofovir (neutralization perfectly performed with the ion-exchange resin) was at most 4%. For the same compound, the “tenofovir dissolved in the aqueous solution” value (pH 2.5 to 3.5 in the neutralization, tenofovir H2O, one-molecule crystal water) was “about 7%”.
